Structures can show the parent of a compound that is named as a salt. Where two headings read alike, the source gives them in different places.
Tests used:
[1] = target: T1, PPARγ (Homo sapiens, UniProt P37231); assay: Evaluation of PPARγ activating action (luciferase reporter, PPARγ:RXRα:4ERPP/CHO-K1 cells); type: cell-based; conditions: for activation at 1 µM: CHO-K1, 24 h, read-out: PPARγ activating action (activation % (10^−6 M))
T1 construct: expressed in transfected cells; host or cells: CHO-K1
T1 sequence (P37231 1-477 isoform P37231-2): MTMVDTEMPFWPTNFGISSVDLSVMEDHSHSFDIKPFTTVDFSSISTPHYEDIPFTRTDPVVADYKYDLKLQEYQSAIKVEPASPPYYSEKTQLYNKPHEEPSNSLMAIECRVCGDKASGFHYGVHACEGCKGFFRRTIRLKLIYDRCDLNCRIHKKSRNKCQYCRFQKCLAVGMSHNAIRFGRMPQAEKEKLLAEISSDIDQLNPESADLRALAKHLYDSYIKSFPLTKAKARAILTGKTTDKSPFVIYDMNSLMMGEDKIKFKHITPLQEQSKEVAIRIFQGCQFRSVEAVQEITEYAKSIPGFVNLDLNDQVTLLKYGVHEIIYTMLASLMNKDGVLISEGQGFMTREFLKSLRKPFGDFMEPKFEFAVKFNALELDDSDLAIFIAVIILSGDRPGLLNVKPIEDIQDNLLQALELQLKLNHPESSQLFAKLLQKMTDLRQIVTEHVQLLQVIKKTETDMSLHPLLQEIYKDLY
T1 sequence (P19793 1-462 partner): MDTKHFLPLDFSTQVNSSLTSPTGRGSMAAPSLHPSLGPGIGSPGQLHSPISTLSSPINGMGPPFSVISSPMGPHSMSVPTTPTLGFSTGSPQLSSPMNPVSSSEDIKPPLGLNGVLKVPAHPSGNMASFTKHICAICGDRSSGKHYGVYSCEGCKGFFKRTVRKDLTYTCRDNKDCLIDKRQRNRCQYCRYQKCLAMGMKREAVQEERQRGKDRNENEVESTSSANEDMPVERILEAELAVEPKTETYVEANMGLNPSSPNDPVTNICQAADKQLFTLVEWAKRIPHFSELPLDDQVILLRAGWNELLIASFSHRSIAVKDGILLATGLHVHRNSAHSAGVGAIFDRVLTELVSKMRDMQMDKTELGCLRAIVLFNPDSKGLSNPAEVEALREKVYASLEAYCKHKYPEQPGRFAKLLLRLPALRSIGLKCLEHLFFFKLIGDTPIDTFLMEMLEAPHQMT
Protocol: PPARγ:RXRα:4ERPP/CHO-K1 cells obtained in the following Reference Example 5 were cultured in F12 medium [manufactured by INVITROGEN, USA] containing 10% fetal bovine serum [manufactured by MOREGATE, Australia], seeded in a 96-well half area white plate [manufactured by Corning Coster Corporation, USA] at the density of 5×10^3 cells/well and cultured in a CO2 gas incubator at 37° C. overnight.
Then the medium was removed from the 96-well half area white plate, 45 μl of Ham's F12 medium containing 0.1% fatty acid-free bovine serum albumin (BSA) and 5 μl of test compound were added, and the cells were cultured in a CO2 gas incubator at 37° C. for 1 day. The medium was removed and 20 μl of PicaGene 7.5 [manufactured by TOYO INK MFG. CO., LTD., Japan] diluted 2-fold with HBSS (HANKS' BALANCED SALT SOLUTION) [manufactured by BIO WHITTAKER, USA] was added. After stirring, the luciferase activity was determined using 1420 ARVO Multilabel Counter [manufactured by PerkinElmer, USA].
The percent (%) was calculated from the luciferase activity of each test compound when the luciferase activity of the control compound (compound X: 5-[3-(4-{[2-(2-furyl)-5-methyl-1,3-oxazol-4-yl]methoxy}-3-methoxyphenyl)propyl]-1,3-oxazolidine-2,4-dione) (1 μM) was 100% and that of the test compound non-administration group was 0%.
A CHO-K1 cell cultured in a 150 cm^2 cell culture flask [manufactured by Corning Costar Corporation, USA] containing Ham's F12 medium [manufactured by INVITROGEN, USA] supplemented with 10% fetal bovine serum [manufactured by INVITROGEN, USA] was scraped by treating with 0.5 g/L trypsin-0.2 g/L EDTA (ethylenediaminetetraacetic acid) [manufactured by Life Technologies, Inc., USA], and then the cell was washed with PBS (Phosphate-buffered saline) [manufactured by INVITROGEN, USA], centrifuged (1000 rpm, 5 minutes) and suspended in PBS. Subsequently, DNA was introduced into the cell under the conditions shown below using GENE PULSER [manufactured by Bio-Rad Laboratories, USA].
Namely, to a cuvette having a 0.4 cm gap were added 8×10^6 cells and 10 μg of plasmid pVgRXR2-hPPARγ obtained in Reference Example 4 and 10 μg of reporter plasmid pGL3-4ERPP-TK neo obtained in Reference Example 3, which was subjected to electroporation at the voltage of 0.25 kV under the capacitance of 960 μF. Subsequently, the cell was transferred into a F12 medium containing 10% fetal bovine serum and cultured for 24 hours, and then the cell was scraped again and centrifuged, and then suspended in Ham's F12 medium containing 10% fetal bovine serum supplemented with 500 μg/ml of Geneticin [manufactured by INVITROGEN, USA] and 250 μg/ml of Zeocin [manufactured by INVITROGEN, USA]. The obtained suspension was diluted to the density of 1 cells/ml and inoculated in a 96-well plate [manufactured by Corning Costar Corporation, USA], which was cultured in a CO2 gas incubator at 37° C., whereby obtaining a Geneticin- and Zeocin-resistant transformant.
Subsequently, after the transformant cell line thus obtained was cultured in a 24-well plate [manufactured by Corning Costar Corporation, USA], a cell line in which the luciferase was expressed and induced, i.e., PPARγ:RXRα:4ERPP/CHO-K1 cell was selected by the addition of 10 μM pioglitazone hydrochloride.

[2] = target: T2, human AT1 receptor (Homo sapiens, UniProt P30556); assay: Binding assay using human AT1 receptor-expressing CHO-K1 cell membrane fraction ([125I]-angiotensin II); conditions: 22.5 pM [125I]-angiotensin II, 9 μg AT1 membrane, 1 hr room temperature; read-out: AT1 receptor binding inhibitory action (IC50 (nM))
T2 construct: expressed in transfected cells; host or cells: CHO-K1
T2 sequence (P30556 1-359): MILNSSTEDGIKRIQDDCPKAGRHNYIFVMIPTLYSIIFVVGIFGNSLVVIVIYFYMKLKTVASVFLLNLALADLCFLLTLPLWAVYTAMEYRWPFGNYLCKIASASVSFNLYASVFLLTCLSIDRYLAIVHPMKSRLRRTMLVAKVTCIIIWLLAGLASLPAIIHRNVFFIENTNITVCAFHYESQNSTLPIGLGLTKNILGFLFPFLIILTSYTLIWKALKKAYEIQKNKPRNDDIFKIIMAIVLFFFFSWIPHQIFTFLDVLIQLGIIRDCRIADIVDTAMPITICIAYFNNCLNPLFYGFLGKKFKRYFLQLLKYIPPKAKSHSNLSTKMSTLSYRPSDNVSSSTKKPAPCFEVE
Protocol: The membrane fraction for human AT1 receptor binding assay was prepared as follows. CHO-K1 cell capable of stable expression of human AT1 receptor was cultured, recovered, suspended in homogenize buffer (10 mM NaHCO3 (pH 7.4), 5 mM EDTA, 1×Complete EDTA free) [manufactured by Roche, Switzerland], and homogenized. The homogenate was centrifuged at low-speed (900×g, 10 min, 4° C.), and the supernatant was recovered and ultracentrifuged (90,000×g, 1 hr, 4° C.). The supernatant was discarded, and the pellets were resuspended in resuspension buffer (50 mM Tris (pH 7.4), 1 mM EDTA, 1×Complete EDTA free).
The binding assay was performed in the presence of 22.5 pM [^125I]-angiotensin II [manufactured by PerkinElmer, USA], 9 μg of AT1 membrane and test compound in 100 μL (total reaction volume) of reaction buffer (50 mM Tris (pH 7.4), 10 mM MgCl2 supplemented or not supplemented with 0.3 mg/mL fatty acid-free bovine serum albumin [manufactured by Wako Pure Chemical Industries, Ltd., Japan]). […] The filter was air-dried, and [^125I]-angiotensin II binding radioactivity was assayed with Top Count scintillation counter. Total binding was measured in the presence of 1% DMSO and nonspecific binding was measured in the presence of 1 μM CV-11974. […]

[3] = test compound 10^−6 M, luciferase activity of control compound X (1 μM) = 100%, non-administration group = 0%

Row | Structure (SMILES) | PPARγ activating action (activation % (10^−6 M)) [1, 3] [%] | also measured
1 | CCCCc1nc(CC)n(Cc2ccccc2)c(=O)c1Cc1ccc(-c2ccccc2-c2noc(=O)[nH]2)cc1 [Example 105, 3-benzyl-6-butyl-2-ethyl-5-{[2′-(5-oxo-4,5-dihydro-1,2,4-oxadiazol-3-yl)biphenyl-4-yl]methyl}pyrimidin-4(3H)-one] | 64.1 | –
2 | CCCCc1nc(CC)n(CC(=O)C(C)(C)C)c(=O)c1Cc1ccc(-c2ccccc2-c2noc(O)n2)cc1 [Example 309, 6-butyl-3-(3,3-dimethyl-2-oxobutyl)-2-ethyl-5-{[2′-(5-oxo-4,5-dihydro-1,2,4-oxadiazol-3-yl)biphenyl-4-yl]methyl}pyrimidin-4(3H)-one potassium salt] | – | IC50 [2]: 1.6 nM; activation at 1 µM [1]: 31.5%
3 | CCCCc1nc(C2CC2)n(-c2ccccc2)c(=O)c1Cc1ccc(-c2ccccc2-c2noc([O-])n2)cc1.[K+] [Example 310, 6-butyl-2-cyclopropyl-5-{[2′-(5-oxo-4,5-dihydro-1,2,4-oxadiazol-3-yl)biphenyl-4-yl]methyl}-3-phenylpyrimidin-4(3H)-one potassium salt] | 27.1 | –
4 | CCCc1nc(CC)n(-c2ccc3c(c2)CCO3)c(=O)c1Cc1ccc(-c2ccccc2-c2noc([O-])n2)cc1.[K+] [Example 311, 3-(2,3-dihydro-1-benzofuran-5-yl)-2-ethyl-5-{[2′-(5-oxo-4,5-dihydro-1,2,4-oxadiazol-3-yl)biphenyl-4-yl]methyl}-6-propylpyrimidin-4(3H)-one potassium salt] | 38.1 | –
5 | CCCc1nc(CC)n(-c2ccc3c(c2)CC(C)O3)c(=O)c1Cc1ccc(-c2ccccc2-c2noc([O-])n2)cc1.[K+] (centres unmarked) [Example 312, 2-ethyl-3-(2-methyl-2,3-dihydro-1-benzofuran-5-yl)-5-{[2′-(5-oxo-4,5-dihydro-1,2,4-oxadiazol-3-yl)biphenyl-4-yl]methyl}-6-propylpyrimidin-4(3H)-one potassium salt] | 50.3 | –
6 | CCCc1nc(CC)n(-c2ccc(OC)cc2)c(=O)c1Cc1ccc(-c2ccccc2-c2noc([O-])n2)cc1.[K+] [Example 313, 2-ethyl-3-(4-methoxyphenyl)-5-{[2′-(5-oxo-4,5-dihydro-1,2,4-oxadiazol-3-yl)biphenyl-4-yl]methyl}-6-propylpyrimidin-4(3H)-one potassium salt] | 31.0 | –
7 | CCCc1nc(C(F)F)n(-c2ccc(OC)cc2)c(=O)c1Cc1ccc(-c2ccccc2-c2noc(=O)[nH]2)cc1 [Example 410, 2-(difluoromethyl)-3-(4-methoxyphenyl)-5-{[2′-(5-oxo-4,5-dihydro-1,2,4-oxadiazol-3-yl)biphenyl-4-yl]methyl}-6-propylpyrimidin-4(3H)-one] | – | activation at 1 µM [1, 3]: 19.5%
8 | CCCc1nc(CC)c(C(O)C(C)C)c(=O)n1Cc1ccc(-c2ccccc2-c2noc(O)n2)cc1 (centres unmarked) [Example 473, 6-ethyl-5-(1-hydroxy-2-methylpropyl)-3-{[2′-(5-oxo-4,5-dihydro-1,2,4-oxadiazol-3-yl)biphenyl-4-yl]methyl}-2-propylpyrimidin-4(3H)-one potassium salt] | 15.7 | –
9 | CCCc1nc(C)c(Oc2ccc(OC)cc2)c(=O)n1Cc1ccc(-c2ccccc2-c2noc(O)n2)cc1 [Example 476, 5-(4-methoxyphenoxy)-6-methyl-3-{[2′-(5-oxo-4,5-dihydro-1,2,4-oxadiazol-3-yl)biphenyl-4-yl]methyl}-2-propylpyrimidin-4(3H)-one potassium salt] | 18.5 | –
10 | CCCc1nc(CC)c(Oc2cccc(OC)c2)c(=O)n1Cc1ccc(-c2ccccc2-c2noc(O)n2)cc1 [Example 488, 6-ethyl-5-(3-methoxyphenoxy)-3-{[2′-(5-oxo-4,5-dihydro-1,2,4-oxadiazol-3-yl)biphenyl-4-yl]methyl}-2-propylpyrimidin-4(3H)-one potassium salt] | 16.7 | –

Reference: US7803940B2, “Heteromonocyclic compound or a salt thereof having strong antihypertensive action, insulin sensitizing activity and the like production thereof and use thereof for prophylaxis or treatment of cardiovascular diseases, metabolic diseases and/or central nervous system diseases” (Takeda Pharmaceutical Company Limited, priority 2006, dated 2010)
